Laboratory results from patent publication US10996215B2, “Methods for determining drug efficacy for the treatment of diffuse large B-cell lymphoma, multiple myeloma, and myeloid cancers” (CELGENE CORPORATION, priority 2013, dated 2021).

Key:
[1] = system: Aiolos, Ikaros, IRF4, Cereblon; assay: Western blot of Aiolos, Ikaros, IRF4, Cereblon in DLBCL cell lines; assay type: cell-based, human
Method: Immunoblots were probed with antibodies recognizing: Aiolos, Ikaros, Cereblon, IRF4, c-myc, CD44, EZH2, EBF 1, PU. 1, and β-actin. Signals were detected with a LI-COR imager
The following steps can be performed to harvest cells in preparation for Western Blot analysis. The steps are performed on ice and any centrifugation is performed in a 4° C. refrigerated centrifuge. RIPA lysis buffer (Pierce, cat #89900) is first prepared by adding […] proteinase inhibitors (Pierce, cat #78443) to 1 mL of RIPA buffer. Subsequently, cells are washed once in ice-cold phosphate buffered saline (PBS). The cells are then lysed with 0.25 mL RIPA lysis buffer. The PBMCs are placed on ice for 30 minutes and vortexed every 10 minutes. Lysates are frozen and stored at −80° C. prior to further processing.
Lysates are placed in a QIAshredder® tube (QIAGEN, cat #79656) and spun down 30 sec, top speed (13200 rpm) in an Eppendorf benchtop centrifuge (Model 5415 R). The lysate is then transferred to a 1.5 mL clear Eppendorf tube and spun down 10 min at top speed. The supernatent is collected without disturbing the cell debris pellet. The supernatent is dry ice frozen and stored at −80° C. prior to analysis.
The protein concentration in supernatent is measured using BCA assay and the expected protein yield is about 0.5-5 μg/μL, or 125-1250 μg total. Approximately ≥10 μg protein per lane is loaded for western blotting (IRF4, IKZF3, etc.) using antibodies against the human proteins.
Membranes are immunblotted with anti-Aiolos (Santa Cruz Biotechnology, Dallas, Tex.), anti-Ikaros (Millipore, Billerica, Mass.) and anti-Actin (Sigma, St. Louis, Mo.; or LI-COR Biosciences, Lincoln, Nebr.) and secondary antibodies (LI-COR Biosciences, Lincoln, Nebr.). The blots are analyzed on Odyssey imager (LI-COR Biosciences, Lincoln, Nebr.).

CSNK1A1, Ikaros = assay: Western analysis of BMMC or PBMC of lenalidomide-treated AML patients; assay type: in vivo; details: 50 mg daily
Method: 3-5 μg total protein from each sample was evaludated for CSNK1A1, Ikaros, and GAPDH expressions by western analysis.

[2] = system: DLBCL cell lines (GCB and ABC); assay: tritiated thymidine incorporation proliferation assay; assay type: cell-based
Method: Cells were then cultured for 3 days at 37° C. Tritiated thymidine was applied to the cell culture for the final 6 hours and cells were then harvested onto filter plates. After the plates have dried, scintillation fluid was added to the plates and read on a Top-count reader.
The cells were then analyzed for proliferation using a ^3H-thymidine incorporation assay.
Proliferation was assessed through tritiated thymidine incorporation.

ABC-DLBCL cell line = assay: Tandem Mass Tag proteomics, lenalidomide vs Compound A; assay type: cell-based; details: ABC-DLBCL cell line; 10 uM; 24 h; vs DMSO
Excerpt: Cells were harvested and proteins were fractionated using a basic pH reverse gradient method. Fractionated samples were labeled using a Tandem Mass Tag method.

HNT-34 = assay: 4 d BrdU cell assay / tritiated thymidine, sensitivity; assay type: cell-based
Method: (§1) Sensitivity to lenalidomide treatment in a panel of myeloid cancer cell lines was evaluated by tritiated thymidine and/or BrdU assays.

MDS-L = assay: as above; assay type: cell-based
Method: as §1

CSNK1A1 (CK1α), Ikaros = assay: MG-132, MLN-4924 or Compound A pre-treatment, Western analysis in HNT-34 cells; assay type: cell-based; details: 10 μM, 3 h or 6 h
IFN pathway = assay: effect on IFN pathway (FIG. 13); assay type: cell-based
[3] = system: other myeloid cancer cell lines; assay: 4 d BrdU cell assay, sensitivity; assay type: cell-based; details: other cell lines of the panel, predominantly insensitive
Method: as §1

AML cell line (HNT-34) = assay: tandem-mass-tagged proteomics of global cellular protein levels; assay type: cell-based, human; details: 10 micromolar
Method: (§2) Samples were subjected to multiplexed quantitative mass spectrometry analysis. In particular, cell lysate was prepared from the samples, and was subjected to tandem protein digestion using LysC and trypsin, peptide labeling with either Tandem Mass Tag 6-plex or 10-plex reagents, and peptide fractionation. Multiplexed quantitative mass spectrometry data were collected on an Orbitrap Fusion mass spectrometer operating in a MS3 mode using synchronous precursor selection for the MS2 to MS3 fragmentation. MS/MS data were searched against a Uniprot human database with both the forward and reverse sequences using the SEQUEST algorithm. Additional data processing steps included controlling peptide and protein level false discovery rates, assembling proteins from peptides, and protein quantification from peptides. Each drug-treated sample has 3 replicates, each DMSO sample has 4 replicates.
(§3) T is the statistic calculated for the t.test. P.value represents statistical significance for the test. Adj.P.value represents FDR multiple testing correction of the P.values in previous parameter. B log odds that the protein is differentially abundant between the conditions (compound vs control).

[4] = system: del(5q) MDS cell line (MDS-L); assay: as above; assay type: cell-based, human
Method: as §2, §3

Nc1cccc2c1CN(C1CCC(=O)NC1=O)C2=O (stereo not shown) [lenalidomide, 3-(4-amino-1-oxo-1,3-dihydro-isoindol-2-yl)-piperidine-2,6-dione] was tested, and the IRF4 levels ([1]; DLBCL cell lines, 1 μM or 10 μM, within 72 hours) was “reduce”, the Aiolos levels ([1]; Karpas 422 (GCB) and TMD8 (ABC), 10 μM, 1, 6 or 12 hours, vs DMSO) was “decrease” and the “Aiolos and Ikaros levels” value ([1]; WSU-DLCL2 (GCB) and OCI-LY10 (ABC), 10 μM, 1, 6 or 12 hours, vs DMSO) was “decreasing”. The CRBN levels ([1]; nine GCB and ABC DLBCL cell lines, 1 μM or 10 μM, 72 hours) was “remained constant”, the “Aiolos and Ikaros levels” value ([1]; nine GCB and ABC DLBCL cell lines, 1 μM or 10 μM, 72 hours, vs DMSO) was “decreasing” and the “patients with both CSNK1A1 and Ikaros modulated (down-regulated)” value (CSNK1A1, Ikaros) was 4 of 5. For the same molecule, the “sensitivity of ABC DLBCL cell lines” value [2] was “sensitive”, the “sensitivity of GCB cell lines” value [2] was “less sensitive” and the “effect on CSNK1A1 protein” value (ABC-DLBCL cell line) was “decreases”. For the same molecule, the EC50 (HNT-34; 96 h, HNT-34, 4 d BrdU) was 600 nM, the “sensitivity of HNT-34 cells” value (HNT-34; FIG. 22B) was “sensitive” and the EC50 (MDS-L; 96 h, MDS-L, 4 d BrdU) was 1500 nM. For the same molecule, the “sensitivity of MDS-L cells” value (MDS-L; FIG. 22B) was “sensitive”, the “CSNK1A1 and Ikaros proteins levels” value (CSNK1A1 (CK1α), Ikaros) was “decreased” and the “IFIT1, IFIT3, DDX58, XAF1, IFIH1, and OAS3 protein expression” value (IFN pathway; FIG. 13A) was “upregulates”. The “DDX58, IFI27, IFIT1, IFIT3, DDX58, and XAF1 gene expression” value (IFN pathway; FIG. 13B) was “upregulates”, the “ISG15 and OAS3 gene expression” value (IFN pathway; FIG. 13C) was “upregulates” and the IRF changes (IFN pathway; FIG. 13E) was “induces”. The “IFIT1 and IFIT3 protein expression” value (IFN pathway; FIG. 13F) was “upregulates”, the IKKE protein level (IFN pathway; FIG. 13F) was “reduces” and the “TBK1 phosphorylation (TBK1-PO4)” value (IFN pathway; FIG. 13F) was “upregulates”. For the same molecule, the “levels of STAT or phosphorylated STAT” value (IFN pathway; FIG. 13G) was “induces changes”, the EC50 [3] was > 10000 nM and the “log2FC CSNK1A1” value (AML cell line (HNT-34); 8 hours) was −1.6. The “log2FC IKZF1” value (AML cell line (HNT-34); 8 hours) was −2.1, the “log2FC CALM1” value (AML cell line (HNT-34); 24 hours) was −1.1 and the “log2FC CCNA2” value (AML cell line (HNT-34); 24 hours) was −1.1. The “log2FC CSNK1A1” value (AML cell line (HNT-34); 24 hours) was −1.4, the “log2FC IKZF1” value (AML cell line (HNT-34); 24 hours) was −2.4 and the “log2FC SERP1NH1” value (AML cell line (HNT-34); 24 hours) was 1.1. For the same molecule, the “log2FC ZFP91” value (AML cell line (HNT-34); 24 hours) was −1.4, the “log2FC ARHGAP18” value (AML cell line (HNT-34); 72 hours) was 1.0 and the “log2FC CASS4” value (AML cell line (HNT-34); 72 hours) was 1.0. The “log2FC CORO1B” value (AML cell line (HNT-34); 72 hours) was 1.4, the “log2FC CSNK1A1” value (AML cell line (HNT-34); 72 hours) was −1.5 and the “log2FC DAB2” value (AML cell line (HNT-34); 72 hours) was 1.3. The “log2FC HSPB1” value (AML cell line (HNT-34); 72 hours) was 1.5, the “log2FC IKZF1” value (AML cell line (HNT-34); 72 hours) was −2.4 and the “log2FC ITM2C” value (AML cell line (HNT-34); 72 hours) was −1.2. For the same molecule, the “log2FC PPFIBP1” value (AML cell line (HNT-34); 72 hours) was 1.2, the “log2FC SERPINH1” value (AML cell line (HNT-34); 72 hours) was 1.7 and the “log2FC ZFP91” value (AML cell line (HNT-34); 72 hours) was −1.1. The “log2FC CSNK1A1” value ([4]; 10 micromolar, 8 hours) was −1.6, the “log2FC IKZF1” value ([4]; 10 micromolar, 8 hours) was −2.1 and the “log2FC CCNA2” value ([4]; 10 micromolar, 24 hours) was −1.1. For the same molecule, the “log2FC CSNK1A1” value ([4]; 10 micromolar, 24 hours) was −1.4, the “log2FC IKZF1” value ([4]; 10 micromolar, 24 hours) was −2.4 and the “log2FC SERPINH1” value ([4]; 10 micromolar, 24 hours) was 1.1. For the same molecule, the “log2FC ZFP91” value ([4]; 10 micromolar, 24 hours) was −1.4, the “log2FC ARHGAP18” value ([4]; 10 micromolar, 72 hours) was 1.0 and the “log2FC CASS4” value ([4]; 10 micromolar, 72 hours) was 1.0. The “log2FC CORO1B” value ([4]; 10 micromolar, 72 hours) was 1.4, the “log2FC CSNK1A1” value ([4]; 10 micromolar, 72 hours) was −1.5 and the “log2FC CYTL1” value ([4]; 10 micromolar, 72 hours) was −1.2. The “log2FC DAB2” value ([4]; 10 micromolar, 72 hours) was 1.3, the “log2FC HSPB1” value ([4]; 10 micromolar, 72 hours) was 1.5 and the “log2FC IKZF1” value ([4]; 10 micromolar, 72 hours) was −2.4. The “log2FC ITM2C” value ([4]; 10 micromolar, 72 hours) was −1.2, the “log2FC PPFIBP1” value ([4]; 10 micromolar, 72 hours) was 1.2 and the “log2FC SERP1NH1” value ([4]; 10 micromolar, 72 hours) was 1.7. For the same molecule, the “log2FC YEATS2” value ([4]; 10 micromolar, 72 hours) was 2.5, the “log2FC ZFP91” value ([4]; 10 micromolar, 72 hours) was −1.1 and the “down-regulation of Ikaros” value ([4]; 72 hrs, most down-regulated protein) was “about 5 fold”. The “down-regulation of CSNK1A1” value ([4]; 72 hrs, second most down-regulated protein) was “about 3 fold”.
